Measurements from patent US20200375992A1, “PHARMACEUTICAL COMPOSITION AND USE FOR APPLYING PALBOCICLIB IN DISEASE TREATMENT OF PATIENT AND INHIBITION OF PI3K ACTIVITY” (Chang Gung University, priority 2019, published 2020).

Assays:
[1] = test system: fMLF-stimulated neutrophils; assay: Superoxide anion generation in fMLF-stimulated neutrophils (ferricytochrome c reduction, OD550); assay type: cell-based; conditions: 1 μM, 3 μM and 10 μM of Palbociclib; human neutrophils stimulated with fMLF (0.1 μM)/cytochalasin B; compared with control; decreased with increasing concentration; FIG. 2A
Experimental: (§1) The informed consent to participate which was approved by the Institutional Review Board are signed by the donors. 50 mL of blood was collected from the median cubital vein of each donor by sterile vacutainer, and was used to isolate neutrophils for the following experiments.
(§2) Human neutrophils (isolated from whole blood of donors) were incubated with ddH2O (as solvent, marked as “−” in the groups at X-axis in FIGS. 2A and 2B) or Palbociclib (0.3-10 μM, dissolved in ddH2O) for 5 minutes, and then stimulated the neutrophils with or without fMLF (0.1 μM)/cytochalasin B (CB, 1 μg/ml) for another 10 minutes to activate the neutrophils. The absorbances (OD550 and OD450) of the reaction mixture were then measured by a spectrophotometer at OD 550 nm and OD 450 nm. The reading of OD550 is used to detect the reduction of ferricytochrome c, which indicates the amount of superoxide anion. The reading of OD450 is used to detect the status of Methoxysuccinyl-Ala-Ala-Val-p-nitroanilide (which is a specific substrate of elastase) affected by elastase, which indicates the release amount and activity of elastase. Cytochalasin B was sold by Sigma-Aldrich, catalog number #2506; fMLF was sold by Sigma-Aldrich, catalog number #454454; model number of the spectrophotometer is HITACHI U-3010. […]

[2] = target: PI3K p110β/p85α (Homo sapiens, UniProt P42338); assay: PI3K p110β/p85α enzymatic activity, Kinase-Glo Luminescent Kinase Assay; assay type: biochemical; conditions: 3 μM, 10 μM and 30 μM of Palbociclib; p<0.001 compared with control; activity decreased with increasing concentration; n=6; FIG. 1B
Sequence of PI3K p110β/p85α (P42338 whole entry): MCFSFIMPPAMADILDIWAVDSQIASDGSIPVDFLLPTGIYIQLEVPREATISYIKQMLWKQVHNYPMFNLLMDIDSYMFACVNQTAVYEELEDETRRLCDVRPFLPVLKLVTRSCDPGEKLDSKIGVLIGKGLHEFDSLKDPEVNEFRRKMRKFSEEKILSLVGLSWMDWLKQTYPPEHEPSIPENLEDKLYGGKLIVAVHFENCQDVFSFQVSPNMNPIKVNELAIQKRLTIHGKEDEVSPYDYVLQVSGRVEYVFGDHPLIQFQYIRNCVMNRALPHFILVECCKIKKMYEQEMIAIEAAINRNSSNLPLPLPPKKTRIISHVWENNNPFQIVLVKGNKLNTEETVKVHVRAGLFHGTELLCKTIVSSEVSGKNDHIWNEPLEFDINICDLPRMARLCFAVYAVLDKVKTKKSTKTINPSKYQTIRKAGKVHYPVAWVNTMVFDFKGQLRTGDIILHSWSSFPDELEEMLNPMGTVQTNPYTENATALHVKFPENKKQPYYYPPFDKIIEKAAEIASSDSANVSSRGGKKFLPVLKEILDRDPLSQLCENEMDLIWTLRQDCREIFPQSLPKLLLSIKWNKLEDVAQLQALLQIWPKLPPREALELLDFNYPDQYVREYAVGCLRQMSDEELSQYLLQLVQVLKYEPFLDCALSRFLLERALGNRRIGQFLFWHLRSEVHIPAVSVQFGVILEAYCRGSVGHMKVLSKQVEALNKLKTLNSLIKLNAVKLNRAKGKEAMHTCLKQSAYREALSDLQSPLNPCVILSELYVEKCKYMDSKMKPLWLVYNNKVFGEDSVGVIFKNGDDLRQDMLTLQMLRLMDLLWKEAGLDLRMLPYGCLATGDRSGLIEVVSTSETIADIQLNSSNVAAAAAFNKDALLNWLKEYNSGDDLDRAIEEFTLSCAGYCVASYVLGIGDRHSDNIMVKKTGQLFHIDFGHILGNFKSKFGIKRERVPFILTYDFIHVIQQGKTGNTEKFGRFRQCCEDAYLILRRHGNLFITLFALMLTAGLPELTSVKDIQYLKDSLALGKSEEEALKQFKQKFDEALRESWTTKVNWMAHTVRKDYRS
Sequence of PI3K p110β/p85α (P27986 whole entry partner): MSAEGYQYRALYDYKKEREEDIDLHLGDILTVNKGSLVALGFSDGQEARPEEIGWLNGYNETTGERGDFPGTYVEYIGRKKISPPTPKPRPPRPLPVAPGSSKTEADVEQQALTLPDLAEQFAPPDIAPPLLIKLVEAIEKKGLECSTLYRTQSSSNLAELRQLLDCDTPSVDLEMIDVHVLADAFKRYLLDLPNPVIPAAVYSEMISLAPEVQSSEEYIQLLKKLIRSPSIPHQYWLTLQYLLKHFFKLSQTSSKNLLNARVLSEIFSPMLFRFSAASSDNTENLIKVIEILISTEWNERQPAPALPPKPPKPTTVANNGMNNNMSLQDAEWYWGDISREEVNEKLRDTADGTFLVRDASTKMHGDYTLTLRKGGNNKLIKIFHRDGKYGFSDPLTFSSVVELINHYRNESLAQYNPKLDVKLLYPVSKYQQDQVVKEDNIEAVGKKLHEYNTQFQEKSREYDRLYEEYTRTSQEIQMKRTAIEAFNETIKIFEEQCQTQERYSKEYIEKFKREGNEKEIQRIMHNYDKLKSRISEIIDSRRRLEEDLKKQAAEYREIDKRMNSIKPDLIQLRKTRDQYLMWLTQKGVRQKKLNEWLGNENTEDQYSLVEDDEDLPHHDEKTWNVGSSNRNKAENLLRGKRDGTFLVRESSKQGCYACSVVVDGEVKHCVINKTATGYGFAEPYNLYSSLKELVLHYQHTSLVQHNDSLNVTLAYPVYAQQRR
Experimental: (§3) Palbociclib was dissolved in ddH2O (as solvent) and then added to the reagents which contain PI3K p110α/p85α (50 ng/ml), PI3K p110β/p85α (150 ng/ml), or PI3K p110δ/p85α (50 ng/ml). The final concentration of Palbociclib was 0.1 to 30 μM. Then, the mixtures were incubated for 10 minutes at 25° C. The reagent which was added by ddH2O (solvent, marked as “−” in FIGS. 1A-1C) instead of Palbociclib was as a control in this experiment. 2.5X ATP/substrate was added to each reagent and then further incubated for 60 minutes. Finally, enzymatic activities of PI3K were analyzed according to the user manual of Kinase-Glo® Luminescent Kinase Assays (Promega Corporation, catalog number V1690) and luminometer (TECAN infinite 200 Pro) by using Kinase-Glo® Luminescent Kinase Assays.

[3] = target: PI3K p110α/p85α (Homo sapiens, UniProt P42336); assay: PI3K p110α/p85α enzymatic activity, Kinase-Glo Luminescent Kinase Assay; assay type: biochemical; conditions: 3 μM, 10 μM and 30 μM of Palbociclib; p<0.001 compared with control; activity decreased with increasing concentration; n=6; FIG. 1A
Sequence of PI3K p110α/p85α (P42336 whole entry): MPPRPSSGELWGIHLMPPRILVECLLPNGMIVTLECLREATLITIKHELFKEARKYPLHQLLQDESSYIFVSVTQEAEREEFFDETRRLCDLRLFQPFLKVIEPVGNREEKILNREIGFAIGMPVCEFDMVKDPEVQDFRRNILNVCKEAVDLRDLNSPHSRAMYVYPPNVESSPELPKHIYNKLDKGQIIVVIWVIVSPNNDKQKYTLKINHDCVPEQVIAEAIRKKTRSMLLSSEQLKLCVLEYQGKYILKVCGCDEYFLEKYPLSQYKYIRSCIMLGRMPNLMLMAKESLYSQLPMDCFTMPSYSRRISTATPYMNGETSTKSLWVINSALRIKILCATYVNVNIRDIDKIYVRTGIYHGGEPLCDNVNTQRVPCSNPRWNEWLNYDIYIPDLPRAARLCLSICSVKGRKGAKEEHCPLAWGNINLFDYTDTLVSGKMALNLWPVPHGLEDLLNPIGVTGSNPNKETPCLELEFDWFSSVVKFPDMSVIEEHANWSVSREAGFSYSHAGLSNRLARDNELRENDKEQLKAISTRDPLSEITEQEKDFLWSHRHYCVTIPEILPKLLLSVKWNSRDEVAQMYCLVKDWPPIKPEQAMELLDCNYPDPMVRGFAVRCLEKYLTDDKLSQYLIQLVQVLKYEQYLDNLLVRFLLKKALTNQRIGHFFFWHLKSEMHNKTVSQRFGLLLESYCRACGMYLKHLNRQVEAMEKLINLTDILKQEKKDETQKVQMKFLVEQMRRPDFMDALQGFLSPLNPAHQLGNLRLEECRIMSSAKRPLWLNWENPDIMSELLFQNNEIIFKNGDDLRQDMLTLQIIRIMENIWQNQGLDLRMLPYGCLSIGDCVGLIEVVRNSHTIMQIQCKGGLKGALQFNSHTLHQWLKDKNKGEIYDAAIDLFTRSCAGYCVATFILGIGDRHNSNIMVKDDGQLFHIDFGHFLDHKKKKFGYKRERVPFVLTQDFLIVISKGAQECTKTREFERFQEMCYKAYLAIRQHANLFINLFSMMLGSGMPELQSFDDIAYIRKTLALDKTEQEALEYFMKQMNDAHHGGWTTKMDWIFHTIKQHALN
Sequence of PI3K p110α/p85α (P27986 whole entry partner): as the sequence (P27986 whole entry partner) above
Experimental: as §3

[4] = test system: IMQ-treated mice; assay: Psoriasis-like symptoms in IMQ-treated mice; assay type: in vivo, Male BALB/c mice
Experimental: 500 μg of Palbociclib was dissolved in 100 μl of 60% ethanol to make a pharmaceutical composition. The Palbociclib concentration of the pharmaceutical composition was 500 μg/100 μl and used in the subsequent animal experimental example 4. Male BALB/c mice (7-9 weeks of age, the body weight of each mouse is about 20 g) were divided into different groups, and each group has 6 mice. Each mouse was epilation on the back and then treated with 100 μl of solvent (60% ethanol) or 100 μl of the pharmaceutical composition prepared in example 3 (the concentration of Palbociclib is 25 mg/kg of body weight) by applying on the nude back skin before topical treatment of imiquimod (IMQ, sold by 3M Health Care Limited). And then applying with or without IMQ on the nude back skin of mice to cause psoriasis-like symptom. Each treatment was given once per day for 5 consecutive days. The mice which applying solvent and IMQ is played as the control. The mice which merely applying solvent or Palbociclib without IMQ are played as the blank 1 and blank 2.

[5] = target: PI3K p110δ/p85α (Homo sapiens, UniProt O00329); assay: PI3K p110δ/p85α enzymatic activity, Kinase-Glo Luminescent Kinase Assay; assay type: biochemical; conditions: 0.1 μM, 1 μM and 10 μM of Palbociclib; p<0.001 compared with control; activity decreased with increasing concentration; n=6; FIG. 1C
Sequence of PI3K p110δ/p85α (O00329 whole entry): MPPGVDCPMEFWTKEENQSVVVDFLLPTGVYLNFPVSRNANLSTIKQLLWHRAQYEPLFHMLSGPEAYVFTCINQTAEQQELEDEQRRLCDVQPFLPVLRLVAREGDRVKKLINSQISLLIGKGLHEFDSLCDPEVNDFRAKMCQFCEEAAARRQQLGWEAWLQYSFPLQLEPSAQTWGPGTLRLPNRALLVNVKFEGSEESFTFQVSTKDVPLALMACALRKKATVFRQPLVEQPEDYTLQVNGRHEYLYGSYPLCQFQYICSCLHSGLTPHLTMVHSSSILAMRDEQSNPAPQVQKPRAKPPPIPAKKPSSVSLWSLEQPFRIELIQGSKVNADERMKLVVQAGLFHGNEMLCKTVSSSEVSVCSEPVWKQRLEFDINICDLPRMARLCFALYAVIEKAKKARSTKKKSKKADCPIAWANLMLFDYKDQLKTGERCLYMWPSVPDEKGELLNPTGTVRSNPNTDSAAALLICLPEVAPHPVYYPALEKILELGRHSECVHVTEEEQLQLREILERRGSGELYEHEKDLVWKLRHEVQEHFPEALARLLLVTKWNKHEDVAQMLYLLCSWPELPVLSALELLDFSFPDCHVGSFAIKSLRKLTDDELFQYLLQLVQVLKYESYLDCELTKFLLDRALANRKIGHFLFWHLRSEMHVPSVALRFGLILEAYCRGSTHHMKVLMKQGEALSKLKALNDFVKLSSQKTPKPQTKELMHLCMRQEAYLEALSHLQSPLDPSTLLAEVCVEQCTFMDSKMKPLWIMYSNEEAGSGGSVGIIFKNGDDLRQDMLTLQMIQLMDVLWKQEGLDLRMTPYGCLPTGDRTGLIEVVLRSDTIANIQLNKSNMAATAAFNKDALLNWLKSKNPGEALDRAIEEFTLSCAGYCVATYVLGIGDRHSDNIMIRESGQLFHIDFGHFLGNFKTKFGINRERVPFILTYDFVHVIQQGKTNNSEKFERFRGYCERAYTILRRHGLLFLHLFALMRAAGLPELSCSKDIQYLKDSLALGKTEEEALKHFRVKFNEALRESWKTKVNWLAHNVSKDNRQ
Sequence of PI3K p110δ/p85α (P27986 whole entry partner): as the sequence (P27986 whole entry partner) above
Experimental: as §3

[6] = test system: fMLF-stimulated neutrophils; assay: Elastase release in fMLF-stimulated neutrophils (Methoxysuccinyl-Ala-Ala-Val-p-nitroanilide, OD450); assay type: cell-based; conditions: 3 μM and 10 μM of Palbociclib; human neutrophils stimulated with fMLF (0.1 μM)/cytochalasin B; compared with control; decreased with increasing concentration; FIG. 2B
Experimental: as §1, §2

PI3K p110β/p85α activity [2]: significantly inhibit
PI3K p110α/p85α activity [3]: significantly inhibit
PI3K p110δ/p85α activity [5]: significantly inhibit
SMILES: CC(=O)c1c(C)c2cnc(Nc3ccc(N4CCNCC4)cn3)nc2n(C2CCCC2)c1=O [Palbociclib, 6-acetyl-8-cyclopentyl-5-methyl-2-((5-(piperazin-1-yl)pyridin-2-yl)amino)pyrido [2,3-d]pyrimidin-7(8H)-one]
generation of superoxide anion [1]: significantly restrict
psoriasis-like symptoms (enlarged skin photos by handheld digital microscope, FIG. 3B) ([4]; Palbociclib 25 mg/kg topical on back skin and IMQ, once per day, after the treatment in 5th day, control shows symptoms from 3rd day): not observed
psoriasis-like symptoms (skin photos, FIG. 3A) ([4]; Palbociclib 25 mg/kg topical on back skin then IMQ, once per day for 5 days, compared with control (solvent and IMQ), 5th day): significantly improved
release of elastase [6]: significantly restrict
